Assay in all cases: Cytochrome P450 Inhibition of VNN1 Inhibitors
In one series the target is Cytochrome P450 2C19 (Homo sapiens, UniProt P33261). How it is done:
(§1) Table 3 and 4: The cocktail was incubated in human liver microsome with NADPH regenerating system (NRS) in a shaking bath at 37±2° C. The formation of specific metabolites was monitored by LC/MS/MS. Test compound was added to the cocktail-liver microsome mixture at varying concentrations and its effect on cytochrome P450 activity was determined by analyzing the rate of specific metabolite formation. The percent inhibition was calculated and plotted with reference to the concentration, and the IC50 value for inhibition was derived by fitting the data with a standard sigmoidal dose-response equation via MLA “Quest Graph™ ED50 Calculator.” AAT Bioquest, Inc, 17 Sep. 2020, aatbio.com/tools/ed50-calculator. […] The reliability of the inhibition assay was established by confirming the inhibition of known inhibitors on different P450 enzymes.

The target of another series is T1, Cytochrome P450 1A2 (Homo sapiens, UniProt P05177).
T1 sequence (P05177 whole entry): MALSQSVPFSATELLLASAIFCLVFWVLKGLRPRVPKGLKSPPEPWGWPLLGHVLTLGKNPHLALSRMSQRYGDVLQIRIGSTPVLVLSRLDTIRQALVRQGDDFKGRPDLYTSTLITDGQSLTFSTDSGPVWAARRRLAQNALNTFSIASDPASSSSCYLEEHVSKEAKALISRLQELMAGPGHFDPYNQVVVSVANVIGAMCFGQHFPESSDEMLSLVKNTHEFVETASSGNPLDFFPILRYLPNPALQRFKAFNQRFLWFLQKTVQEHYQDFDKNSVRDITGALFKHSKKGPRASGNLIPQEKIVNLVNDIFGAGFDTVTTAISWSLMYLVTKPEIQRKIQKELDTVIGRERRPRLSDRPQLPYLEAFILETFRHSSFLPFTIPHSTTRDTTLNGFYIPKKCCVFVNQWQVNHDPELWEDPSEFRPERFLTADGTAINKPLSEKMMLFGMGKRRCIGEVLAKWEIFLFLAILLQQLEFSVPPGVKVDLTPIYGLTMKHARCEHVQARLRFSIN
On the procedure:
as §1

A further series has as its target Cytochrome P450 2C9 (Homo sapiens, UniProt P11712). How it is done: as §1

This note sets out measurements from BindingDB's records for patent US20250042850 (Athos Therapeutics, 2025).

As usually defined, the IC50 is the concentration that inhibits the measured activity by half. The low end stands for higher potency, the high end for lower potency.

Cytochrome P450 2C9, sequence (P11712 whole entry): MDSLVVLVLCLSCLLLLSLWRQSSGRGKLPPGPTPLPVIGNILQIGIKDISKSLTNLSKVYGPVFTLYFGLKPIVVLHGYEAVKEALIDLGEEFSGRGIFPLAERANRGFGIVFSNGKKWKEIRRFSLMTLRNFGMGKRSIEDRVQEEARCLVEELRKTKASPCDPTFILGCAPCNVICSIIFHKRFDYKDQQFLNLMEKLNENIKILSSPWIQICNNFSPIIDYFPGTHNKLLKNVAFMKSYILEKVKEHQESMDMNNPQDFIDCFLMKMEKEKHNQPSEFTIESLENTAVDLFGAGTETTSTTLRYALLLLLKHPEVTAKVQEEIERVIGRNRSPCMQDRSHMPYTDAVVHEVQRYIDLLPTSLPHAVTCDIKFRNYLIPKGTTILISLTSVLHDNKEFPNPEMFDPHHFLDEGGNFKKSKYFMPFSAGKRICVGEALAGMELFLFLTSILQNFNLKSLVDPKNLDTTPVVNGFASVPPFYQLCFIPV
Cytochrome P450 2C19, sequence (P33261 whole entry): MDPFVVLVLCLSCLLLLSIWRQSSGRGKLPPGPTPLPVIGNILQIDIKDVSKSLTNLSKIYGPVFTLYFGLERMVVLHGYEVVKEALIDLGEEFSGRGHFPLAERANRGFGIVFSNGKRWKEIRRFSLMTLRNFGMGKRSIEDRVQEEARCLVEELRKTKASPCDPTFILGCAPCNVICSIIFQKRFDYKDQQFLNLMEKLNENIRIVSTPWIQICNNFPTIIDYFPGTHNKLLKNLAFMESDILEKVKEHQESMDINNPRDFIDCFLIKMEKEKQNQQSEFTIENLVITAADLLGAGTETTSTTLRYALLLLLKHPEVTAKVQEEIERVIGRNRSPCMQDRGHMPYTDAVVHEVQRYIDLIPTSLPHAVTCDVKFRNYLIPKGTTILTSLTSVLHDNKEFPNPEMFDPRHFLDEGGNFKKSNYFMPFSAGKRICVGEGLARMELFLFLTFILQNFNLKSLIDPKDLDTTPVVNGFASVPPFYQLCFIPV

For `CC(C)(CO)[C@@H](O)C(=O)n1ccc(C(=O)N2CCCC2)c1` [US20250042850, Compound 10], the figures for the IC50 against Cytochrome P450 2C19, against Cytochrome P450 1A2 and against Cytochrome P450 2C9 were 62.6 µM, greater than 100 µM and greater than 100 µM, respectively.
